Source: patent publication US6534447B1, “Herbicidal pyridine compounds” (BASF Aktiengesellschaft, priority 1999, dated 2003)

Legend:
Assay type in all cases: in vivo
[1] = tested on: Galium aparine (GALAP, cleaver); experiment: Pre-emergence herbicidal evaluation; conditions: 3 weeks after treatment
From the text: (§1) The pre-emergence herbicidal activity of the compounds of the present invention is exemplified by the following test in which the seeds of a variety of monocotyledonous and dicotyledonous plants are seperately mixed with potting soil and planted on top of approximately one inch of soil in separate post. After planting, the pots are sprayed with the selected aqueous acetone solution. containing test compound in sufficient quantity to provide the equivalent of about 0.025 to 0.4 kg per hectare of test compound per pot. The treated pots are then placed on greenhouse benches, watered and cared for in accordance with conventional greenhouse procedures. From 3 weeks after treatment, the tests are terminated and each pot is examined and rated according to the rating system set forth below. [table] [table]

[2] = tested on: Setaria viridis (SETVI, green foxtail); experiment: Pre-emergence herbicidal evaluation; conditions: 3 weeks after treatment
From the text: as §1

[3] = tested on: Ipomoea hederacea (IPOHE, morning glory); experiment: Pre-emergence herbicidal evaluation; conditions: 3 weeks after treatment
From the text: as §1

[4] = tested on: Matricaria inodora (MATIN, mayweed); experiment: Pre-emergence herbicidal evaluation; conditions: 3 weeks after treatment
From the text: as §1

[5] = tested on: Echinochloa grus galli (ECHCG, barnyard grass); experiment: Pre-emergence herbicidal evaluation; conditions: 3 weeks after treatment
From the text: as §1

[6] = tested on: Abutilon theophrasti (ABUTH, velvetleaf); experiment: Pre-emergence herbicidal evaluation; conditions: 3 weeks after treatment
From the text: as §1

[7] = tested on: Alopecurus myosuroides (ALOMY, black grass); experiment: Pre-emergence herbicidal evaluation; conditions: 3 weeks after treatment
From the text: as §1

[8] = tested on: Stellaria media (STEME, chickweed); experiment: Pre-emergence herbicidal evaluation; conditions: 3 weeks after treatment
From the text: as §1

[9] = tested on: Galium aparine (GALAP, cleaver); experiment: Post-emergence herbicidal evaluation; conditions: 3 weeks after treatment
Experimental: (§2) These acetone solutions are diluted with water and the resulting formulations applied at dosage levels equivalent of about 0.025 to 0.4 kg per hectare of test compound per pot. After spraying the plants are placed on greenhouse benches and are cared for in the usual manner, commensurate with conventional greenhouse practices. From 3 weeks after treatment, the seedling plants are examined and rated according to the rating system provided above. A rating 0 indicates growth as untreated control, a rating 9 indicates death.

[10] = tested on: Setaria viridis (SETVI, green foxtail); experiment: Post-emergence herbicidal evaluation; conditions: 3 weeks after treatment
Experimental: as §2

[11] = tested on: Ipomoea hederacea (IPOHE, morning glory); experiment: Post-emergence herbicidal evaluation; conditions: 3 weeks after treatment
Experimental: as §2

[12] = tested on: Dolium multiflorum (LOLMU, ryegrass); experiment: Post-emergence herbicidal evaluation; conditions: rate 0.100 kg/ha, 3 weeks after treatment
Experimental: as §2

[13] = tested on: Matricaria inodora (MATIN, mayweed); experiment: Post-emergence herbicidal evaluation; conditions: 3 weeks after treatment
Experimental: as §2

[14] = tested on: Echinochloa grus galli (ECHCG, barnyard grass); experiment: Post-emergence herbicidal evaluation; conditions: 3 weeks after treatment
Experimental: as §2

[15] = tested on: Abutilon theophrasti (ABUTH, velvetleaf); experiment: Post-emergence herbicidal evaluation; conditions: 3 weeks after treatment
Experimental: as §2

[16] = tested on: Alopecurus myosuroides (ALOMY, black grass); experiment: Post-emergence herbicidal evaluation; conditions: 3 weeks after treatment
Experimental: as §2

[17] = tested on: Stellaria media (STEME, chickweed); experiment: Post-emergence herbicidal evaluation; conditions: 3 weeks after treatment
Experimental: as §2

[18] = tested on: Zea mays (ZEAMX, maize); experiment: Pre-emergence herbicidal evaluation (crop); conditions: 3 weeks after treatment
From the text: as §1

[19] = tested on: Glycine max (GLXMA, soyabeans); experiment: Pre-emergence herbicidal evaluation (crop); conditions: 3 weeks after treatment
From the text: as §1

[20] = tested on: Triticum aestivum (TRZAW, winter wheat); experiment: Pre-emergence herbicidal evaluation (crop); conditions: 3 weeks after treatment
From the text: as §1

Cc1cc(OCCSC(F)(F)F)nc(Oc2ccnc(C(F)(F)F)c2)c1 [Example 51]
GALAP rating ([1]; rate 0.025 kg/ha): 8 (8 - Approaching complete kill) | GALAP rating ([1]; rate 0.100 kg/ha): 8 (8 - Approaching complete kill) | GALAP rating ([1]; rate 0.400 kg/ha): 8 (8 - Approaching complete kill) | SETVI rating ([2]; rate 0.025 kg/ha): 8 (8 - Approaching complete kill) | SETVI rating ([2]; rate 0.100 kg/ha): 8 (8 - Approaching complete kill) | SETVI rating ([2]; rate 0.400 kg/ha): 9 (9 - Complete kill) | IPOHE rating ([3]; rate 0.025 kg/ha): 9 (9 - Complete kill) | IPOHE rating ([3]; rate 0.100 kg/ha): 9 (9 - Complete kill) | IPOHE rating ([3]; rate 0.400 kg/ha): 9 (9 - Complete kill) | MATIN rating ([4]; rate 0.025 kg/ha): 8 (8 - Approaching complete kill) | MATIN rating ([4]; rate 0.100 kg/ha): 9 (9 - Complete kill) | MATIN rating ([4]; rate 0.400 kg/ha): 9 (9 - Complete kill) | ECHCG rating ([5]; rate 0.025 kg/ha): 7 (7 - Good herbicidal effect) | ECHCG rating ([5]; rate 0.100 kg/ha): 9 (9 - Complete kill) | ECHCG rating ([5]; rate 0.400 kg/ha): 9 (9 - Complete kill) | ABUTH rating ([6]; rate 0.025 kg/ha): 9 (9 - Complete kill) | ABUTH rating ([6]; rate 0.100 kg/ha): 9 (9 - Complete kill) | ABUTH rating ([6]; rate 0.400 kg/ha): 9 (9 - Complete kill) | ALOMY rating ([7]; rate 0.025 kg/ha): 8 (8 - Approaching complete kill) | ALOMY rating ([7]; rate 0.100 kg/ha): 8 (8 - Approaching complete kill) | ALOMY rating ([7]; rate 0.400 kg/ha): 8 (8 - Approaching complete kill) | STEME rating ([8]; rate 0.025 kg/ha): 9 (9 - Complete kill) | STEME rating ([8]; rate 0.100 kg/ha): 9 (9 - Complete kill) | STEME rating ([8]; rate 0.400 kg/ha): 9 (9 - Complete kill) | GALAP rating ([9]; rate 0.025 kg/ha): 6 (6 - Herbicidal effect) | GALAP rating ([9]; rate 0.100 kg/ha): 9 (9 - Complete kill) | GALAP rating ([9]; rate 0.400 kg/ha): 9 (9 - Complete kill) | SETVI rating ([10]; rate 0.025 kg/ha): 8 (8 - Approaching complete kill) | SETVI rating ([10]; rate 0.100 kg/ha): 9 (9 - Complete kill) | SETVI rating ([10]; rate 0.400 kg/ha): 9 (9 - Complete kill) | IPOHE rating ([11]; rate 0.025 kg/ha): 9 (9 - Complete kill) | IPOHE rating ([11]; rate 0.100 kg/ha): 9 (9 - Complete kill) | IPOHE rating ([11]; rate 0.400 kg/ha): 9 (9 - Complete kill) | LOLMU rating [12]: 8 (8 - Approaching complete kill) | MATIN rating ([13]; rate 0.025 kg/ha): 4 (4 - Injury) | MATIN rating ([13]; rate 0.100 kg/ha): 6 (6 - Herbicidal effect) | MATIN rating ([13]; rate 0.400 kg/ha): 8 (8 - Approaching complete kill) | ECHCG rating ([14]; rate 0.025 kg/ha): 9 (9 - Complete kill) | ECHCG rating ([14]; rate 0.100 kg/ha): 9 (9 - Complete kill) | ECHCG rating ([14]; rate 0.400 kg/ha): 9 (9 - Complete kill) | ABUTH rating ([15]; rate 0.025 kg/ha): 7 (7 - Good herbicidal effect) | ABUTH rating ([15]; rate 0.100 kg/ha): 8 (8 - Approaching complete kill) | ABUTH rating ([15]; rate 0.400 kg/ha): 8 (8 - Approaching complete kill) | ALOMY rating ([16]; rate 0.025 kg/ha): 4 (4 - Injury) | ALOMY rating ([16]; rate 0.100 kg/ha): 7 (7 - Good herbicidal effect) | ALOMY rating ([16]; rate 0.400 kg/ha): 8 (8 - Approaching complete kill) | STEME rating ([17]; rate 0.025 kg/ha): 8 (8 - Approaching complete kill) | STEME rating ([17]; rate 0.100 kg/ha): 9 (9 - Complete kill) | STEME rating ([17]; rate 0.400 kg/ha): 9 (9 - Complete kill) | ZEAMX rating ([18]; rate 0.025 kg/ha): 3 (3 - Moderate effect) | ZEAMX rating ([18]; rate 0.100 kg/ha): 4 (4 - Injury) | ZEAMX rating ([18]; rate 0.400 kg/ha): 5 (5 - Definite injury) | GLXMA rating ([19]; rate 0.025 kg/ha): 4 (4 - Injury) | GLXMA rating ([19]; rate 0.100 kg/ha): 5 (5 - Definite injury) | GLXMA rating ([19]; rate 0.400 kg/ha): 6 (6 - Herbicidal effect) | TRZAW rating ([20]; rate 0.025 kg/ha): 2 (2 - Slight effect) | TRZAW rating ([20]; rate 0.100 kg/ha): 4 (4 - Injury) | TRZAW rating ([20]; rate 0.400 kg/ha): 6 (6 - Herbicidal effect)

Cc1cc(OCC=CSC(F)(F)F)nc(Oc2cc(C(F)(F)F)nn2C)c1 [Example 2, 2-(1-Methyl-3-trifluoromethylpyrazol-5-yloxy)-4-methyl-6-(3-trifluoromethylthioprop-2-enyloxy)pyridine]
GALAP rating ([1]; rate 0.025 kg/ha): 7 (7 - Good herbicidal effect) | GALAP rating ([1]; rate 0.400 kg/ha): 8 (8 - Approaching complete kill) | SETVI rating ([2]; rate 0.025 kg/ha): 9 (9 - Complete kill) | SETVI rating ([2]; rate 0.100 kg/ha): 9 (9 - Complete kill) | SETVI rating ([2]; rate 0.400 kg/ha): 9 (9 - Complete kill) | IPOHE rating ([3]; rate 0.025 kg/ha): 5 (5 - Definite injury) | IPOHE rating ([3]; rate 0.100 kg/ha): 5 (5 - Definite injury) | IPOHE rating ([3]; rate 0.400 kg/ha): 8 (8 - Approaching complete kill) | MATIN rating ([4]; rate 0.025 kg/ha): 8 (8 - Approaching complete kill) | MATIN rating ([4]; rate 0.100 kg/ha): 8 (8 - Approaching complete kill) | MATIN rating ([4]; rate 0.400 kg/ha): 9 (9 - Complete kill) | ECHCG rating ([5]; rate 0.025 kg/ha): 7 (7 - Good herbicidal effect) | ECHCG rating ([5]; rate 0.100 kg/ha): 8 (8 - Approaching complete kill) | ECHCG rating ([5]; rate 0.400 kg/ha): 8 (8 - Approaching complete kill) | ABUTH rating ([6]; rate 0.025 kg/ha): 3 (3 - Moderate effect) | ABUTH rating ([6]; rate 0.100 kg/ha): 7 (7 - Good herbicidal effect) | ABUTH rating ([6]; rate 0.400 kg/ha): 8 (8 - Approaching complete kill) | ALOMY rating ([7]; rate 0.025 kg/ha): 8 (8 - Approaching complete kill) | ALOMY rating ([7]; rate 0.100 kg/ha): 8 (8 - Approaching complete kill) | ALOMY rating ([7]; rate 0.400 kg/ha): 8 (8 - Approaching complete kill) | STEME rating ([8]; rate 0.025 kg/ha): 9 (9 - Complete kill) | STEME rating ([8]; rate 0.100 kg/ha): 9 (9 - Complete kill) | STEME rating ([8]; rate 0.400 kg/ha): 9 (9 - Complete kill) | GALAP rating ([9]; rate 0.025 kg/ha): 6 (6 - Herbicidal effect) | GALAP rating ([9]; rate 0.100 kg/ha): 7 (7 - Good herbicidal effect) | GALAP rating ([9]; rate 0.400 kg/ha): 7 (7 - Good herbicidal effect) | SETVI rating ([10]; rate 0.025 kg/ha): 7 (7 - Good herbicidal effect) | SETVI rating ([10]; rate 0.100 kg/ha): 8 (8 - Approaching complete kill) | SETVI rating ([10]; rate 0.400 kg/ha): 8 (8 - Approaching complete kill) | IPOHE rating ([11]; rate 0.025 kg/ha): 8 (8 - Approaching complete kill) | IPOHE rating ([11]; rate 0.100 kg/ha): 9 (9 - Complete kill) | IPOHE rating ([11]; rate 0.400 kg/ha): 9 (9 - Complete kill) | LOLMU rating [12]: 8 (8 - Approaching complete kill) | MATIN rating ([13]; rate 0.025 kg/ha): 6 (6 - Herbicidal effect) | MATIN rating ([13]; rate 0.100 kg/ha): 6 (6 - Herbicidal effect) | MATIN rating ([13]; rate 0.400 kg/ha): 6 (6 - Herbicidal effect) | ECHCG rating ([14]; rate 0.025 kg/ha): 8 (8 - Approaching complete kill) | ECHCG rating ([14]; rate 0.100 kg/ha): 8 (8 - Approaching complete kill) | ECHCG rating ([14]; rate 0.400 kg/ha): 8 (8 - Approaching complete kill) | ABUTH rating ([15]; rate 0.025 kg/ha): 6 (6 - Herbicidal effect) | ABUTH rating ([15]; rate 0.100 kg/ha): 7 (7 - Good herbicidal effect) | ABUTH rating ([15]; rate 0.400 kg/ha): 7 (7 - Good herbicidal effect) | ALOMY rating ([16]; rate 0.025 kg/ha): 7 (7 - Good herbicidal effect) | ALOMY rating ([16]; rate 0.100 kg/ha): 7 (7 - Good herbicidal effect) | ALOMY rating ([16]; rate 0.400 kg/ha): 7 (7 - Good herbicidal effect) | STEME rating ([17]; rate 0.025 kg/ha): 4 (4 - Injury) | STEME rating ([17]; rate 0.100 kg/ha): 5 (5 - Definite injury) | STEME rating ([17]; rate 0.400 kg/ha): 5 (5 - Definite injury) | ZEAMX rating ([18]; rate 0.025 kg/ha): 4 (4 - Injury) | ZEAMX rating ([18]; rate 0.100 kg/ha): 5 (5 - Definite injury) | ZEAMX rating ([18]; rate 0.400 kg/ha): 5 (5 - Definite injury) | GLXMA rating ([19]; rate 0.025 kg/ha): 0 (0 - No effect) | GLXMA rating ([19]; rate 0.100 kg/ha): 2 (2 - Slight effect) | GLXMA rating ([19]; rate 0.400 kg/ha): 4 (4 - Injury) | TRZAW rating ([20]; rate 0.025 kg/ha): 2 (2 - Slight effect) | TRZAW rating ([20]; rate 0.100 kg/ha): 3 (3 - Moderate effect) | TRZAW rating ([20]; rate 0.400 kg/ha): 5 (5 - Definite injury)
